Results taken from PubChem BioAssay (NCI).
Several values for one entry are separate records, joined by “and”; a condition that tells them apart may be missing. Identical values can stand only once.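 Cells were grown in 96-well plates and exposed to each compound for 48 hours at five concentrations; endpoints were interpolated linearly between bracketing concentrations, or set to the highest concentration if not reached. GI50 is the concentration that inhibits growth by half. TGI: concentration producing complete growth inhibition.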

Legend:
Test in all cases: growth of human tumour cells (NCI), 48 h
786-0 renal = test system: 786-0 renal
A498 renal = test system: A498 renal
M14 melanoma = test system: M14 melanoma
MDA-MB-435 = test system: MDA-MB-435
NCI-H460 lung = test system: NCI-H460 lung
OVCAR-8 ovarian = test system: OVCAR-8 ovarian
SF-268 CNS = test system: SF-268 CNS
SF-295 CNS = test system: SF-295 CNS
SNB-75 CNS = test system: SNB-75 CNS
UO-31 renal = test system: UO-31 renal

| Structure (SMILES) | GI50 (786-0 renal) | TGI (786-0 renal) | GI50 (A498 renal) | TGI (A498 renal) | GI50 (M14 melanoma) | TGI (M14 melanoma) | GI50 (MDA-MB-435) | TGI (MDA-MB-435) | GI50 (NCI-H460 lung) | TGI (NCI-H460 lung) | GI50 (OVCAR-8 ovarian) | TGI (OVCAR-8 ovarian) | GI50 (SF-268 CNS) | TGI (SF-268 CNS) | GI50 (SF-295 CNS) | TGI (SF-295 CNS) | GI50 (SNB-75 CNS) | TGI (SNB-75 CNS) | GI50 (UO-31 renal) | TGI (UO-31 renal) |
| --- | --- | --- | --- | --- | --- | --- | --- | --- | --- | --- | --- | --- | --- | --- | --- | --- | --- | --- | --- | --- |
| COC12C=C/C(=C(/C(=O)OCc3ccncc3)C(=O)CCCCCCCCC3(OC)C=C/C(=C(/C(=O)OCc4ccncc4)C(=O)CCCCCCCC1)O3)O2 | 0.354 µM | 1.19 µM | 0.78 µM | 1.48 µM | 0.17 µM | 0.574 µM | 0.121 µM | 0.312 µM | 0.915 µM | 1.98 µM | 0.219 µM | 50 µM | 1.04 µM | 3.28 µM | 0.899 µM | 3.29 µM | 0.779 µM | 1.97 µM | 0.641 µM | 1.4 µM |
| O=C(c1ccc(Cl)cc1)c1cnc(Nc2ccccc2Cl)s1 |  | 39.1 µM |  | 27.3 µM |  | > 31.6 µM |  | > 100 µM |  | > 59.8 µM |  | > 71.1 µM |  | 57.6 µM |  | 44.3 µM |  | 39.2 µM |  | 50.1 µM |
| CC1(C)OCCn2c1nc1c(N3CCOCC3)nc(-c3cnc(N)nc3)nc12 | 0.344 µM | 5.09 µM | 0.133 µM | 0.627 µM | 0.316 µM | > 100 µM | 0.27 µM |  | 0.187 µM | > 100 µM | 0.404 µM | 11.2 µM | 0.426 µM | > 100 µM | 0.213 µM | 1.92 µM | 0.0563 µM | 0.817 µM | 0.0912 µM | 1.11 µM |
| CCCn1c(N)c(C(=O)N/N=C(/C)c2cc3cccc(OC)c3o2)sc1=S | 25.5 µM | 51.6 µM | 65.4 µM | > 100 µM | 53.8 µM | > 100 µM | 56.6 µM | > 100 µM | 17.7 µM | > 100 µM | 13.8 µM | > 100 µM | 22.4 µM | > 100 µM | 0.01 µM | 18.1 µM | 30.1 µM | 82.3 µM | 27.7 µM | > 100 µM |
| O=C(c1c(F)ccc(NS(=O)(=O)N2CC[C@@H](F)C2)c1F)c1c[nH]c2ncc(-c3cnc(C4CC4)nc3)cc12 | 5.46 µM and 6.36 µM | > 10 µM and 56.7 µM | 3.95 µM and 3.77 µM | > 10 µM and 23.1 µM | 0.00625 µM and < 0.01 µM | > 4.09 µM and 10.4 µM | 0.0174 µM and 0.0272 µM | > 10 µM and 23.1 µM | 4.25 µM and 4.67 µM | > 10 µM and 26.3 µM | 5.22 µM and 7.06 µM | > 10 µM and 55.3 µM | 5.86 µM and 6.77 µM | > 10 µM and 71.3 µM | 5.87 µM and 4.71 µM | > 10 µM and 33.5 µM | 1.77 µM and 2.17 µM | > 10 µM and 12.8 µM | 3.41 µM and 3.79 µM | > 10 µM and 25.5 µM |
| Cc1[nH]c2ccccc2c1-c1cc(-c2cc(-c3c(C)[nH]c4ccccc34)on2)no1 |  | > 100 µM |  | > 100 µM |  | > 100 µM |  | 80.6 µM |  | > 100 µM |  | > 100 µM |  | > 100 µM |  | > 100 µM |  | 66.8 µM |  | > 100 µM |
| CCCNC(=S)/N=C/c1c(O)c2ccccc2[nH]c1=O |  | > 100 µM |  | > 100 µM |  | > 100 µM |  | > 100 µM |  | > 100 µM |  | > 100 µM |  | > 100 µM |  | > 100 µM |  | > 100 µM |  | > 100 µM |
| N=c1ccn2c(n1)OC1C(O)C(CO)OC12 (stereo not drawn) | 0.652 µM | > 1000 µM | 66.3 µM | > 1000 µM | 0.228 µM |  | 2.59 µM | > 1000 µM | 0.242 µM | 168 µM and > 100 µM | 0.481 µM | > 1000 µM | 2.41 µM | > 619 µM | 5.93 µM | 359 µM and > 100 µM | > 100 µM | > 1000 µM | 3.08 µM and 0.355 µM | > 1000 µM |
| COc1ccc(-c2oc(=O)ccc2-c2cc(OC)c(OC)c(OC)c2)cc1F | 36.4 µM | > 100 µM | 25.1 µM | 92.9 µM | 14.1 µM | > 100 µM | 2.13 µM | 6.66 µM | 5.43 µM | > 100 µM | 24.1 µM | > 100 µM | 33.6 µM | > 100 µM | 6.67 µM | 89.7 µM | 3.33 µM | 36.4 µM | 8.79 µM | 35.8 µM |
| CC(=O)OC12c3ccccc3-c3ccccc3C1C1C(=O)N(C)C(=O)C12Cl (stereo not drawn) |  | > 10 µM |  | > 10 µM |  | > 10 µM |  | > 10 µM |  | > 10 µM |  | > 10 µM |  | > 10 µM |  | > 10 µM |  | > 10 µM |  | > 10 µM |
| O=C(c1ccc(F)c(F)c1Nc1ccc(I)cc1F)N1CC(O)([C@@H]2CCCCN2)C1 | 5.74 µM and 3.82 µM | 20.6 µM and > 10 µM | < 0.0194 µM and 0.0422 µM | 0.134 µM and 0.294 µM | < 0.01 µM and 0.00283 µM | 0.205 µM and 0.0436 µM | < 0.01 µM and 0.00943 µM | 15.1 µM and > 10 µM | 2.92 µM and 2.42 µM | 17.9 µM and > 10 µM | 10.5 µM and > 10 µM | 24.5 µM and > 10 µM | 5.02 µM and 4.94 µM | 20.6 µM and > 10 µM | 15.7 µM and > 10 µM | 32.4 µM and > 10 µM | 2.85 µM and 0.574 µM | 16 µM and > 10 µM | 0.0596 µM and 0.538 µM | 13.8 µM and > 10 µM |
| CC(CC(=O)O)C(C(=O)O)C(=O)O (stereo not drawn) |  | > 100 µM |  | > 100 µM |  | > 100 µM |  | > 100 µM |  | > 100 µM |  | > 100 µM |  | > 100 µM |  | > 100 µM |  | > 100 µM |  | > 100 µM |
| CC1=CC(=O)[C@@H](O)[C@]2(C)[C@H]3[C@@]4(O)OC[C@]35[C@H]([C@@H](C)[C@H]4O)[C@@H](O)C(=O)O[C@@H]5C[C@@H]12 |  | 2.13 µM |  | 4.45 µM |  | 1.04 µM |  | 1.73 µM |  | 4.85 µM |  | 5.82 µM |  | 0.778 µM |  | 3.7 µM |  | 0.759 µM |  | 6.71 µM |
